Values quoted from earlier work in patent US7438896B2, “Method of skin care using lipoic and ascorbic acids” (N.V. Perricone LLC, priority 1995, dated 2008).

Legend:
[1] = system: rat edema; conditions: compared with lipoic alone or vitamin E alone
[2] = system: insulin
[3] = system: cultured human keratinocytes; conditions: compositions without serine
[4] = system: porcine skin; conditions: compositions without serine

## O=C(O)CCCC[C@@H]1CCSS1 (single isomer, unassigned) [R-enantiomer of lipoic acid]
[1]
  anti-inflammatory effect in rat edema model: superior to lipoic alone or to vitamin E alone

## O=C(O)CCCC[C@H]1CCSS1 (single isomer, unassigned) [S-enantiomer]
[2]
  effect on the action of insulin: decreased the effect of insulin

## O=C(O)CCCCC1CCSS1 (stereo not shown) [lipoic acid, 1,2-dithiolane-3-pentanoic acid]
[3]
  effect on ceramide production: had no effect
[4]
  effect on ceramide production: had no effect
